Consider 50 molecules from patent US4323568A, “Pharmaceutically active (omega-aminoalkoxy)bibenzyls” (Mitsubishi Chemical Industries Limited, priority 1977, dated 1982).

Series [1] deals with rabbit blood platelet aggregation. Nature of the series: inhibition of collagen-induced platelet aggregation in rabbit platelet-rich plasma (turbidometric method of Born). The note with it: Oryctolagus cuniculus, collagen 10 to 15 μg/ml, 37° C., 3 min preincubation, read-out: I50 (concentration inhibiting platelet aggregation by 50 percent). In kind it is cell-based. The method, then: Evaluation of the compounds of this invention for their activity against platelet aggregation was carried out according to a turbidometric method described by G. V. R. Born, Nature 194 927 (1962). Platelet aggregation was measured using platelet-rich plasma prepared from citrated blood which was collected from a carotid artery of male white rabbits of Japanese native kind. A suspension of collagen (bovine Achilles tendon collagen, Sigma) in saline was used to cause platelet aggregation. The aggregation of rabbit blood platelet was induced by adding the suspension of collagen to give 10 to 15 μg collagen per milliliter. At this time, the tests were conducted at 37° C. at levels of 4×10^5 platelet/mm^3. A solution of compounds of this invention in saline was added to the platelet-rich plasma. After three minutes of preincubation with the platelet-rich plasma, collagen was added to cause platelet aggregation. Percent inhibition was calculated by comparison with controls.
Using the above procedure, the compounds of this invention were compared to aspirin.
(§1) The concentration of the compound in micromoles inhibiting platelet aggregation by 50 percent (I50) and LD50 which was calculated by Litchfield-Wilcoxon method are shown in Table 1.

Series [2] in a line: LD50 i.p. in mice, calculated by Litchfield-Wilcoxon method. The following applies: mouse, in vivo, ip, read-out: ID50 (the source's name). The method, then:
as §1

Where a name gives a salt, the structure may show the parent alone.

For the molecule `CC(=O)Oc1ccccc1C(=O)O` [Aspirin, aspirin, reference compound], the IC50 in series [1] is 25000 nM. Regarding `CN(C)CCOc1ccccc1CCc1ccccc1` [Example 1, 2-(2-dimethylaminoethoxy)bibenzyl hydrochloride], the LD50 in series [2] is 165 mg/kg. Moreover, the IC50 in series [1] was 600 nM.

With `CN(C)CCCOc1ccccc1CCc1ccccc1` [Example 2, 2-(3-dimethylaminopropoxy)bibenzyl hydrochloride], the IC50 in series [1] was 600 nM.

In the case of `CN(C)CCCCOc1ccccc1CCc1ccccc1` [Example 3, 2-(4-dimethylaminobutoxy)bibenzyl], the LD50 in series [2] was 215 mg/kg. Further, the IC50 in series [1] turned out to be 600 nM. Turning to `CN(C)CCCCCOc1ccccc1CCc1ccccc1` [Example 4, 2-(5-dimethylaminopentyloxy)bibenzyl], in series [2], the LD50 is 205 mg/kg. The IC50 in series [1] stood at 800 nM. As to `CN(C)CCCCCCOc1ccccc1CCc1ccccc1` [Example 5, 2-(6-dimethylaminohexyloxy)bibenzyl], in series [1], the IC50 came to 1000 nM.

For the molecule `CNCCCCOc1ccccc1CCc1ccccc1` [Example 6, 2-(4-methylaminobutoxy)bibenzyl], the IC50 in series [1] came out at 7000 nM.

For the molecule `CCCCN(C)CCCCOc1ccccc1CCc1ccccc1` [Example 7, 2-[4-(N-methyl-N-butylamino)butoxy]bibenzyl], in series [1], the IC50 was found to be 3000 nM. Same read-out and setting: then `CN(CCO)CCCCOc1ccccc1CCc1ccccc1` [Example 8, 2-{4-[N-methyl-N-(2-hydroxyethyl)amino]butoxy}bibenzyl], with 2000 nM; and `c1ccc(CCc2ccccc2OCCCCN2CCCCC2)cc1` [Example 9, 2-(4-piperidinobutoxy)bibenzyl], with 1000 nM.

Regarding `c1ccc(CCc2ccccc2OCCCCN2CCOCC2)cc1` [Example 10, 2-(4-morpholinobutoxy)bibenzyl], in series [1], the IC50 was 10000 nM.

For the molecule `c1ccc(CCc2ccccc2OCCCCN2CCNCC2)cc1` [Example 11, 2-[4-(1-piperazinyl)butoxy]bibenzyl dihydrochloride], the IC50 in series [1] was 2000 nM. On the same count and under the same terms, then `c1ccc(CCc2ccccc2OCCCCN2CCCC2)cc1` [Example 12, 2-[4-(1-pyrrolidinyl)butoxy]bibenzyl], with 700 nM.

Consider `OCCN1CCN(CCCCOc2ccccc2CCc2ccccc2)CC1` [Example 13, 2-{4-[4-(2-hydroxyethyl)-1-piperazinyl]butoxy}bibenzyl], for which, in series [1], the IC50 is 3000 nM. Same read-out and setting: for `OCCN(CCO)CCCCOc1ccccc1CCc1ccccc1` [Example 14, 2-[4-bis(2-hydroxyethyl)aminobutoxy]bibenzyl] the value was 5000 nM; for `CCN(CC)CCOc1ccccc1CCc1ccccc1` [Example 15, 2-(2-diethylaminoethoxy)bibenzyl], 500 nM. As for `CCN(CC)CCCOc1ccccc1CCc1ccccc1` [Example 16, 2-(3-diethylaminopropoxy)bibenzyl], the LD50 in series [2] was 187 mg/kg. In addition, in series [1], the IC50 came out at 500 nM. For `CCN(CC)CCCCOc1ccccc1CCc1ccccc1` [Example 17, 2-(4-diethylaminobutoxy)bibenzyl], the IC50 in series [1] stood at 800 nM. Take `CCN(CC)CCCCCOc1ccccc1CCc1ccccc1` [Example 18, 2-(5-diethylaminopentyloxy)bibenzyl]: the IC50 in series [1] turned out to be 1000 nM.

In the case of `CCN(CC)CCCCCCOc1ccccc1CCc1ccccc1` [Example 19, 2-(6-diethylaminohexyloxy)bibenzyl], the IC50 in series [1] amounted to 1000 nM. Consider `CN(C)CCCOc1ccc(CCc2ccccc2)cc1` [Example 20, 4-(3-dimethylaminopropoxy)bibenzyl], for which, in series [1], the IC50 came out at 2000 nM. Same read-out and setting: then `CN(C)CCCCOc1ccc(CCc2ccccc2)cc1` [Example 21, 4-(4-dimethylaminobutoxy)bibenzyl], with 2000 nM. For `Cl.O=C(O)C1CCN(CCCCOc2ccccc2CCc2ccccc2)CC1` [Example 22, 2-[4-(4-carboxypiperidino)butoxy]bibenzyl hydrochloride], in series [2], the LD50 was 500 mg/kg. Besides, the IC50 in series [1] was 5500 nM.

Regarding `NC(=O)C1CCN(CCCCOc2ccccc2CCc2ccccc2)CC1` [Example 24, 2-[4-(4-carbamoylpiperidino)butoxy]bibenzyl], the LD50 in series [2] is 500 mg/kg. Further, in series [1], the IC50 was 1500 nM. For `NC(=O)C1CCN(CCOc2ccccc2CCc2ccccc2)CC1` [Example 25, 2-[2-(4-carbamoylpiperidino)ethoxy]bibenzyl], the IC50 in series [1] is 2500 nM. The same measure, in the same setting: for `CN(C)C(=O)C1CCN(CCCCOc2ccccc2CCc2ccccc2)CC1` [Example 26, 2-[4-(4-dimethylcarbamoylpiperidino)butoxy]bibenzyl hydrochloride] the value was 3000 nM; for `CCNC(=O)C1CCN(CCCCOc2ccccc2CCc2ccccc2)CC1` [Example 27, 2-[4-(4-ethylcarbamoylpiperidino)butoxy]bibenzyl], 2500 nM. Take `NC(=O)C1CCCN(CCCCOc2ccccc2CCc2ccccc2)C1` (stereo not shown) [Example 29, 2-[4-(3-carbamoylpiperidino)butoxy]bibenzyl]: the LD50 in series [2] is 270 mg/kg. Further, in series [1], the IC50 is 1400 nM. Take `NC(=O)C1CCN(CCCOc2ccccc2CCc2ccccc2)CC1` [Example 30, 2-[3-(4-carbamoylpiperidino)propoxy]bibenzyl]: the IC50 in series [1] was determined as 2000 nM. The same measure, in the same setting: then `COc1ccccc1CCc1ccccc1OCCN(C)C` [Example 31, 2-(2-dimethylaminoethoxy)-2'-methoxybibenzyl], with 600 nM. For `COc1ccccc1CCc1ccccc1OCCCCN(C)C` [Example 32, 2-(4-dimethylaminobutoxy)-2'-methoxybibenzyl], the LD50 in series [2] is 250 mg/kg. Also, in series [1], the IC50 is 900 nM. With `COc1cccc(CCc2ccccc2OCCCCN(C)C)c1` [Example 34, 2-(4-dimethylaminobutoxy)-3'-methoxybibenzyl], the LD50 in series [2] is 200 mg/kg. Besides, the IC50 in series [1] was 550 nM.

Regarding `COc1cccc(CCc2ccccc2OCCCCN2CCN(CCO)CC2)c1` [Example 35, 2-{4-[4-(2-hydroxyethyl)-1-piperazinyl]butoxy}-3'-methoxybibenzyl], in series [1], the IC50 was determined as 1200 nM. For `CCOc1ccccc1CCc1ccccc1OCCCCN(CC)CC` [Example 37, 2-(4-diethylaminobutoxy)-2'-ethoxybibenzyl], the IC50 in series [1] worked out at 1000 nM. Turning to `CN(C)CCCCOc1ccccc1CCc1ccccc1O` [Example 38, 2-(4-dimethylaminobutoxy)-2'-hydroxybibenzyl], the LD50 in series [2] is 167 mg/kg. Also, in series [1], the IC50 came out at 900 nM. For `COC(=O)c1ccccc1CCc1ccccc1OCCN(C)C` [Example 41, 2-(2-dimethylaminoethoxy)-2'-methoxycarbonylbibenzyl], in that order: 130 mg/kg and 500 nM. As to `CN(C)CCCOc1ccccc1CCc1ccc(Cl)cc1` [Example 44, 2-(3-dimethylaminopropoxy)-4'-chlorobibenzyl], the LD50 in series [2] is 185 mg/kg. The IC50 in series [1] was determined as 600 nM. Take `OCCN1CCN(CCCCOc2ccccc2CCc2ccc(Cl)cc2)CC1` [Example 45, 2-{4-[4-(2-hydroxyethyl)-1-piperazinyl]butoxy}-4'-chlorobibenzyl]: in series [1], the IC50 was 3000 nM. Take `Clc1ccc(CCc2ccccc2OCCCCN2CCCC2)cc1` [Example 46, 2-[4-(1-pyrrolidinyl)butoxy]-4'-chlorobibenzyl]: the IC50 in series [1] came to 1300 nM. Take `CN(C)CCCCOc1ccccc1CCc1ccccc1Cl.Cl` [Example 47, 2-(4-dimethylaminobutoxy)-2'-chlorobibenzyl hydrochloride]: in series [2], the LD50 is 170 mg/kg. In series [1], the IC50 was found to be 500 nM. `CN(C)CCCCCCOc1ccccc1CCc1ccccc1Cl` [Example 51, 2-(6-dimethylaminohexyloxy)-2'-chlorobibenzyl]: in series [2], the LD50 is 250 mg/kg. Further, in series [1], the IC50 came out at 800 nM. For the molecule `CN(C)CCCOc1ccccc1CCc1ccccc1Cl` [Example 52, 2-(3-dimethylaminopropoxy)-2'-chlorobibenzyl], the IC50 in series [1] was 630 nM. As to `CN(C)CCCOc1ccccc1CCc1ccc(Cl)c(Cl)c1.Cl` [Example 54, 2-(3-dimethylaminopropoxy)-3',4'-dichlorobibenzyl hydrochloride], in series [2], the LD50 is 250 mg/kg. In addition, in series [1], the IC50 stood at 600 nM. In the same order, the values of `CN(C)CCCCOc1ccccc1CCc1ccc(F)cc1` [Example 55, 2-(4-dimethylaminobutoxy)-4'-fluorobibenzyl] are 185 mg/kg and 750 nM. Regarding `NC(=O)C1CCN(CCCCOc2ccccc2CCc2ccc(F)cc2)CC1` [Example 56, 2-[4-(4-carbamoylpiperidino)butoxy]-4'-fluorobibenzyl], the LD50 in series [2] is 450 mg/kg. Moreover, the IC50 in series [1] turned out to be 1300 nM. In the case of `OC1CCN(CCCCOc2ccccc2CCc2ccc(F)cc2)CC1` [Example 58, 2-[4-(4-hydroxypiperidino)butoxy]-4'-fluorobibenzyl], in series [1], the IC50 worked out at 1100 nM.

Take `Cc1ccccc1CCc1ccccc1OCCCCN(C)C` [Example 61, 2-(4-dimethylaminobutoxy)-2'-methylbibenzyl]: the IC50 in series [1] is 1100 nM. On the same count and under the same terms, then `Cc1ccccc1CCc1ccccc1OCCCCN1CCC(C(N)=O)CC1` [Example 63, 2-[4-(4-carbamoylpiperidino)butoxy]-2'-methylbibenzyl], with 2000 nM; and `CN(C)CCCOc1ccccc1CCc1ccc(N(C)C)cc1` [Example 64, 2-(3-dimethylaminopropoxy)-4'-dimethylaminobibenzyl], with 350 nM; and `COc1cccc(CCc2ccccc2)c1OCCCCN(C)C` [Example 67, 2-(4-dimethylaminobutoxy)-3-methoxybibenzyl], with 3000 nM.
